Experimental data from patent US20240238299A1, “USE OF PYRROLOPYRIMIDINE COMPOUND” (GUANGZHOU JOYO PHARMATECH CO., LTD, priority 2021, published 2024).

Legend:
[1] = system: STAT3 phosphorylation (p-STAT3/STAT3) in spinal cord; test: EAE mouse model, STAT3 phosphorylation in spinal cord (Western blot); type: in vivo, C57BL/6 mice; details: for inhibition rate of STAT3 phosphorylation in spinal cord: day 28
BV-2 cells = test: CTG cell proliferation assay, LPS/IFN-γ-activated BV-2 cells; type: cell-based, Mouse
Procedure: Step 1: BV-2 cells in the exponential growth phase were collected, and viable cells were counted using a Vi-Cell XR cell counter. The cell suspension was adjusted to an appropriate concentration with the culture medium. 160 μL of cell suspension was added to each well of a 96-well cell culture plate, resulting in a final cell concentration of 12,000 cells per well. The culture plate was incubated for 24 hours in a 37° C., 5% CO2 incubator.
Step 2: A 10 mM DMSO compound stock solution was diluted at a ratio of 1:4 using DMSO to prepare a series of 1000× test compound solutions. These 1000× test compound solutions were further diluted at a ratio of 1:100 using cell culture medium to prepare a series of 10× test compound solutions. Finally, the 96-well plate that had been plated with cells the day before was taken out. According to the experimental well plate loading design, 20 μL of the corresponding 10× solution was added to each well, with three duplicate wells for each drug concentration. The final concentrations of the test compounds used in the experiment (i.e., 1× solutions) have a range of 10, 2.5, 0.625, 0.156, 0.0391, 0.0098, and 0.0024 μM. The final DMSO concentration in each well was 0.1%.
After the compound was added, the 96-well plate was incubated for half an hour in the 37° C., 5% CO2 incubator.
After the pre-incubation was completed, 20 μL of culture medium containing 100 ng/mL LPS and 100 ng/mL IFN-γ (final concentrations of 10 ng/mL LPS and 10 ng/mL IFN-7) was added to each well to induce the activation of BV-2 cells. The culture plate was then incubated for 24 hours in the 37° C., 5% CO2 incubator.
Step 3: After 24 hours of treatment with the compound, the culture plate was centrifuged at 1200 rpm for 5 minutes. The supernatant was pipetted into another plate, which was sealed with tinfoil and stored at −20° C. for future ELISA and Griess reagent system assays. The cell culture plate from which the supernatant had been removed was immediately used for cell proliferation assays using the CellTiter-Glo (CTG) method.
Step 4: In the cell culture plate from which the supernatant had been removed, 100 μL of PBS was added to each well. According to the instructions of the CellTiter-Glo (CTG) kit, 50 μL of pre-melted and room-temperature balanced CTG solution was added to each well. The plate was then mixed for 2 minutes using a microplate shaker. After letting it stand at room temperature for 10 minutes, the fluorescence signal value was measured using an Envision 2104 plate reader.
Step 1: Using the CTG fluorescence signal values, the percentage of surviving cells (surviving cells %) at each test concentration relative to the blank (DMSO) group was calculated. The formula was: surviving cells %=fluorescence value of the test concentration group/fluorescence value of the blank group.
Step 2: the percentage of surviving cells was plotted against the logarithm of the compound concentration. Nonlinear regression was used to fit the curve, and the formula “log(inhibitor) vs. response—Variable slope” in the software GraphPad Prism 5 was employed to calculate the IC50 value.
Step 3: The formula for calculating the inhibition rate was: inh. (%)={fluorescence value of the blank group−fluorescence value of the test concentration group}/fluorescence value of the blank (DMSO) group.

CN(c1ncnc2[nH]ccc12)[C@@H]1CCc2cc(C#N)nn2C1 [Compound I]
inhibition rate of STAT3 phosphorylation in spinal cord ([1]; 10 mg/kg BID): 86%
inhibition rate of STAT3 phosphorylation in spinal cord ([1]; 20 mg/kg BID): 86%
STAT3 phosphorylation in spinal cord ([1]; all dose groups, day 28, 0.25 h after administration): significantly inhibited the level of STAT3 phosphorylation in spinal cord
inhibitory effect on cell proliferation (BV-2 cells; 24 h co-incubation with BV-2, highest test concentration 10 μM): no inhibitory effect on cell proliferation
maximum rate of increase in cell numbers compared to blank (DMSO) well (BV-2 cells; BV-2, 24 h, concentration greater than 0.1 μM): 46.39%
inhibition at up to 10 µM (BV-2 cells; Mus musculus, BV-2, 24 h co-incubation, LPS/IFN-γ, highest concentration 10 μM, read-out: Maximum inhibition rate on BV-2 cell proliferation): -46.4%
